Test results published in patent US20250375434A1, “SMALL MOLECULES AND METHODS FOR INDUCING CARDIOMYOCYTE PROLIFERATION” (UNIVERSITY OF VIRGINIA PATENT FOUNDATION, priority 2024, published 2025).

Columns and labels:
[1] = system: hiPSC-CMs (iCell Cardiomyocytes); test: DNA synthesis assay (48 h EdU incorporation)
Protocol: ICell Cardiomyocytes (Cellular Dynamics International) were seeded in 96-well or 384-well Corning CellBind plates at approximately 2.5×10^4 to 3.5×10^4 cells/cm^2. Cells were cultured for 2 days in iCell Cardiomyocytes Plating Medium (Cellular Dynamics International) supplemented with 1% Penicillin/Streptomycin (P/S; Gibco) followed by an additional 4 days in iCell Cardiomyocytes Maintenance Medium (Cellular Dynamics International) supplemented with 1% P/S. For all experiments, cells were first serum starved for 4 h and then treated in William's E medium without phenol red (Gibco) supplemented with Primary Hepatocyte Cell Maintenance Cocktail B (Gibco) containing P/S, ITS+, GlutaMAX, and HEPES. Cells were cultured for all experiments in a humidified environment at 37° C. with 5% CO2.
EdU incorporation and labeling with copper catalyzed click chemistry was used to measure DNA synthesis. Cells were treated in the presence of 1 μM EdU (Invitrogen) for 48 h, and subsequently fixed and permeabilized prior to incubation with the EdU click chemistry reaction mix—100 mM Tris HCL pH 7.0 (Gentrox), 4 mM CuSO4 (Sigma), 100 mM ascorbic acid (Sigma), and 5 μM Alexa Fluor 546 Azide (Click Chemistry Tools). After labelling EdU, cells were stained with anti-Cardiac Troponin T (Abcam) and DAPI (Sigma).
Custom image analysis and processing pipelines were developed and implemented in MATLAB to quantify the number of nuclei/cells, percent EdU positive objects, percent Ki67 positive objects, multinucleation, DNA content, cell cycle phases, and ploidy.
Classification—The binary segmented mask and background subtracted images were used to calculate the mean intensities of Hoechst 33342, DAPI, Cardiac-Troponin T, EdU, and Ki67 staining for each segmented object. […] Marker positivity thresholds were determined using Rosin's unimodal thresholding algorithm [63] on the mean intensity values for each segmented object.

[2] = system: hiPSC-CMs (iCell Cardiomyocytes); test: Live-cell proliferation assay (change in number of cells over 6 days)
Protocol: Using the same live-cell proliferation assay we developed in the previous study [13], we confirmed the 5-point concentration-response profiles (0.1-10.0 μM) in three independent manufacturing lots of iCell Cardiomyocytes (FIG. 7). Briefly, hiPSC-CMs were stained with a low, non-toxic concentration of Hoechst 33342 and the same imaging fields of view were collected at both initial (day 0) and final (day 6) timepoints. We quantified the change in the number of cells, binucleation events, and DNA content distribution using the image segmentation and analysis pipeline described in the previous study [13].
ICell Cardiomyocytes (Cellular Dynamics International) were seeded in 96-well or 384-well Corning CellBind plates at approximately 2.5×10^4 to 3.5×10^4 cells/cm^2. […] Cells were cultured for all experiments in a humidified environment at 37° C. with 5% CO2.
Pharmacology Metrics—Based on concentration-dependent responses of changes in cell number, we quantified area under the curve (AUC) as the sum of the relative changes in cell number across the five concentrations of compound. As a measure of potency, we performed cubic B-spline interpolation and then calculated the minimum concentration needed to achieve 50% of the maximum effect.

[3] = system: hiPSC-CMs (iCell Cardiomyocytes); test: Multinucleation analysis after 6 days of treatment; assay type: cell-based, human; settings: 10 μM inhibitor alone or with C3, compared to negative control or compound treatment alone
Protocol: Multinucleation Analysis—Multinucleated cells were identified based on the distance between neighboring nuclei. This distance threshold was determined using Cardiac-Troponin T staining to visualize cell borders. A morphological closing operation with a circular structuring element was applied to the binary segmented mask to merge and classify nuclei in multinucleated cells.

[4] = system: hiPSC-CMs (iCell Cardiomyocytes); test: DNA content / ploidy and cell cycle phase analysis after 6 days of treatment
VEGFR2 (KDR) = settings: 12 h treatment, compared to the DMSO negative control
Protocol: To further investigate the role of RTKs in compound-induced proliferation, we profiled the activity of 49 RTKs using a specialized array with the same protein lysates used for the RPPA.
Cells were seeded in 60 mm Corning CellBind dishes, cultured for 6 days, serum starved for 4 h, and treated with compounds for 12 h with 3 replicates. At the end of the experiment, cells were treated with 1 mM peroxyvanadate (1 mM NaVO3, 0.1 μg/mL Catalase, 0.003% H2O2) for 15 min prior to cell lysis. Cells were then rinsed with ice-cold 1×PBS and lysed on ice for 15 min with lysis buffer (50 mM Tris-HCl pH 7.5, 150 mM NaCl, 0.1 mM EDTA, 1 mM DTT, 1 mM NaVO3, 0.5% TritonX-100) containing protease inhibitor cocktail (Sigma). Cell lysates were mechanically homogenized using 28-gauge syringes, spun down, and adjusted to equivalent concentrations. The Proteome Profiler Human Phospho-RTK Array Kit (R&D Systems) was used to measure phosphorylation activity of 49 RTKs. Briefly, the arrays with printed anti-RTK antibodies were blocked for 1 hour and incubated with 38.8 μg of total protein lysate overnight at 4° C. The arrays were then washed and incubated with anti-phospho-tyrosine antibodies conjugated to HRP and detected via chemiluminescence. Array films were scanned and Image Studio software (LI-COR) was used to quantify intensities of each spot. […]

In the case of `C[C@]1(O)C[C@@H](c2nc(-c3ccc4ccc(-c5ccccc5)nc4c3)c3c(N)nccn32)C1` [linsitinib], the “effect of inhibitor on C3 induced DNA synthesis” value ([1]; 0.1 μM inhibitor in combination with 3.2 μM C3, 48 hrs) is reported as “modest effect in reducing” and the “effect of inhibitor on late-stage proliferation metrics” value ([2]; 0.1 μM inhibitor in combination with 3.2 μM C3, day 6) is reported as “no effect”.

For `CNC(=O)c1ccccc1Sc1ccc2c(/C=C/c3ccccn3)n[nH]c2c1` [axitinib], the increase in multinucleation [3] was “over 2 fold”.

With `Cc1cccc(-c2n[nH]cc2-c2ccc3ncccc3n2)n1` [C3, RepSox] the endoreplication cycles [4] was “without additional endoreplication cycles”, the “VEGFR2 (KDR) activation / expression” value (VEGFR2 (KDR)) was “induced” and the maximum-effect concentration ([2]; 5-point concentration response 0.1-10 μM, 6 days) was 3.2 µM. The “proliferation (change in the number of cells over 6 days)” value ([2]; compound alone at Emax concentration, 6 days) was “induces proliferation”.

`COc1cccc(-c2cc(=O)c3ccccc3o2)c1N` [PD98059] was tested, and the “effect of inhibitor alone on DNA synthesis (EdU incorporation)” value ([1]; 10 μM inhibitor alone, unstimulated hiPSC-CMs, 48 h) was “modest decreases”, the “effect of inhibitor on C3 induced DNA synthesis” value ([1]; 10 μM inhibitor in combination with 3.2 μM C3, 48 h) was “attenuated” and the “effect of inhibitor on C3 induced proliferation (increase in cell numbers)” value ([2]; 10 μM inhibitor in combination with 3.2 μM C3, day 6) was “only INK and PI3K inhibition attenuated”.
